Results from patent US11278513B2, “Diethylamino compounds for use as local anesthetics” (Zhejiang Yuejia Pharmaceuticals Co., Ltd, priority 2017, dated 2022).
Where “and” joins values, the source holds several entries; their conditions need not be identical. Equal values may be shown once. Read-outs that look alike come from different tables or passages of the source.

Experiments:
[1] = Stability of aqueous solution at 2-8° C. (HPLC); assay type: physicochemical; conditions: for Main Drug, %: aqueous solution 5 g in 50 mL sterile water; for Main Drug, % / Salicylic acid, % (impurity) / Salicylic acid-(2-diethylaminoethyl ester) hydrochloride, % (impurity) / Acetylsalicylic acid, % (impurity): 2-8° C.; for Salicylic acid, % (impurity) / Salicylic acid-(2-diethylaminoethyl ester) hydrochloride, % (impurity) / Acetylsalicylic acid, % (impurity): aqueous solution
Nav1.7 [2] = target: T1, Nav1.7 (Homo sapiens, UniProt Q15858); test: Inhibition of Nav1.7 channel current in CHO cells stably expressing Nav1.7; assay type: cell-based; conditions: CHO cells stably expressing Nav1.7, channel current
T1 construct: expressed in transfected cells

[3] = tested on: rat dorsal root ganglion (DRG) neurons; test: Patch clamp inhibition of action potential of acutely isolated rat DRG neurons; assay type: cell-based; conditions: DRG neuron
Source text: In addition, the inventor used acutely isolated rat dorsal root ganglion (DRG) neurons as the experimental object, using patch clamp technology to investigate the inhibition effect of the compound represented by Formula 1 of the present invention on the neuronal excitability of the dorsal root ganglion.

[4] = Physical and chemical properties (repose angle, solubility, acidity, dissociation constant); assay type: physicochemical
Nav1.8 [5] = target: T2, Nav1.8 (Homo sapiens, UniProt Q9Y5Y9); test: Inhibition of Nav1.8 channel current in HEK cells stably expressing Nav1.8; assay type: cell-based; conditions: HEK cells stably expressing Nav1.8, channel current
T2 construct: expressed in transfected cells

[6] = tested on: corneal reflex in rabbits; test: Anesthetic effect on the corneal surface of New Zealand rabbits (corneal reflex inhibition, CRI); assay type: in vivo, New Zealand white rabbits
Protocol: New Zealand white rabbits were weighed. […] A single administration of 3 mg/animal (100 μL) was performed on the surface of the eyeball, and the drug concentration was 3% (m/V) in each case (wherein a Tris solution was added to aspirin to facilitate dissolution). Each group included 12 rabbits. […] An equal volume of normal saline was dropped onto the right eyeball as the self-negative control. […] After 30 minutes of administration, it was tested every 15 minutes. After the corneal reflex returned to the pre-dose level, the test was stopped. By comparing the corneal reflex on the administration side and the self-negative control side, the effect of the compound on the corneal reflex after administration was judged. Corneal reflex inhibition (CRI) was used to evaluate the effect of drugs on corneal reflex. CRI was calculated as follows: […]

Nav1.8 [7] = target: T2, Nav1.8; conditions: reported by a literature; cited from earlier work
Nav1.7 [8] = target: T1, Nav1.7; conditions: reported by a literature; cited from earlier work
[9] = 3% (m/V), 100 μL on left eyeball, 0 min, mean ± SD
[10] = 3% (m/V), 100 μL on left eyeball, 10 min after administration, mean ± SD
[11] = 3% (m/V), 100 μL on left eyeball, 15 min after administration, mean ± SD
[12] = 3% (m/V), 100 μL on left eyeball, 20 min after administration, mean ± SD
[13] = 3% (m/V), 100 μL on left eyeball, 25 min after administration, mean ± SD
[14] = 3% (m/V), 100 μL on left eyeball, 30 min after administration, mean ± SD
[15] = 3% (m/V), 100 μL on left eyeball, 45 min after administration, mean ± SD
[16] = 3% (m/V), 100 μL on left eyeball, 60 min after administration, mean ± SD
[17] = ophthalmic administration, 3% (m/V), rabbits
[18] = 3% (m/V), 100 μL on left eyeball, 5 min after administration, mean ± SD

T1 sequence (Q15858 whole entry): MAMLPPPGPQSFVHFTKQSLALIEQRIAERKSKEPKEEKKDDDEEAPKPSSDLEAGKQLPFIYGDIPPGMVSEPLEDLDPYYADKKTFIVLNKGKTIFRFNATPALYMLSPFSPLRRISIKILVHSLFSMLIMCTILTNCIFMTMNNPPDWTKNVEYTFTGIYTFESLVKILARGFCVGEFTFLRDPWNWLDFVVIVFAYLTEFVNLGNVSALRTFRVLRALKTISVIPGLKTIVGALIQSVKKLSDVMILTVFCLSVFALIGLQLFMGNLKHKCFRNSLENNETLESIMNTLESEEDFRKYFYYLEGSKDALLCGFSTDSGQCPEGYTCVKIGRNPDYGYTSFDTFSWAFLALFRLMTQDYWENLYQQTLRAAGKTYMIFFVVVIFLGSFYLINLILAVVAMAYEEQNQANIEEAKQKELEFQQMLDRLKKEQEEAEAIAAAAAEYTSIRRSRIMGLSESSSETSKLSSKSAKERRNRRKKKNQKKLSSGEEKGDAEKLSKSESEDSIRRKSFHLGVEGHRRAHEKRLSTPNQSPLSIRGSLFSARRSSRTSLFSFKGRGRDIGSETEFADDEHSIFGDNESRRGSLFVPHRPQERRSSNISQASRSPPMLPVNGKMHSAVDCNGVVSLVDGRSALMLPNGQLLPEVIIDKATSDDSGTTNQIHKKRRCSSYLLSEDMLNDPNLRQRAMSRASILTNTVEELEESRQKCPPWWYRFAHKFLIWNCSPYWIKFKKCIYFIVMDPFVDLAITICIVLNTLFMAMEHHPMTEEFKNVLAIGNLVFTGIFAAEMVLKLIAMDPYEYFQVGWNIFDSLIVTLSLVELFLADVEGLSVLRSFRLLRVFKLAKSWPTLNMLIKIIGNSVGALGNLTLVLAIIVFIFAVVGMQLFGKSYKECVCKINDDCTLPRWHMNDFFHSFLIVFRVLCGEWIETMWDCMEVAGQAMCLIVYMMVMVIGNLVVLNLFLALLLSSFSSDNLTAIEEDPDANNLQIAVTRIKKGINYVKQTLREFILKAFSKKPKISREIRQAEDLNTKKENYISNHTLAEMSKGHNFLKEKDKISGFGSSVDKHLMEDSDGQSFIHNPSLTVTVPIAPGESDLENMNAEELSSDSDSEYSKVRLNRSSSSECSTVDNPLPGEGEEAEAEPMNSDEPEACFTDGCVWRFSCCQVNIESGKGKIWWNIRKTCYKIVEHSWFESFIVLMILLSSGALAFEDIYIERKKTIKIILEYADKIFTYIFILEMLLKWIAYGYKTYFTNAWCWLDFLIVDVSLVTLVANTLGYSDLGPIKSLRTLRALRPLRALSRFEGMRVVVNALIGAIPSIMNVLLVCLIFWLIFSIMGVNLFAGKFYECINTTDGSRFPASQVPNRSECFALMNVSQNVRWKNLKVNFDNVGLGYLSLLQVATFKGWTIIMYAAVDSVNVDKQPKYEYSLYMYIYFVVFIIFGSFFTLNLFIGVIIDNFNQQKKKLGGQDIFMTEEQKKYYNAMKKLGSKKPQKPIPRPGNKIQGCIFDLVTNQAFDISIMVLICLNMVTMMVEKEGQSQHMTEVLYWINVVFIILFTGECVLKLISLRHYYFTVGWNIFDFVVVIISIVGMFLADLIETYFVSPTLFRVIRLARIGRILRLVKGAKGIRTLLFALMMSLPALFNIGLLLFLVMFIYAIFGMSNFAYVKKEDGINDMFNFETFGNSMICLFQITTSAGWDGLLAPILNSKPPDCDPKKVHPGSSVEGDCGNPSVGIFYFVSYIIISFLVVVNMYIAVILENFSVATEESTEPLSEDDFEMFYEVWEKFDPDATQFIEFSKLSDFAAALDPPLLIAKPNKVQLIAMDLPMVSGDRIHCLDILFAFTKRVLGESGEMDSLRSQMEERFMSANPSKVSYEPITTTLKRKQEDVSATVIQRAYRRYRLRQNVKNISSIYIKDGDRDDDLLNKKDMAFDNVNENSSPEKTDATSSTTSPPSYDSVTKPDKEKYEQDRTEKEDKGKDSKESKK
T2 sequence (Q9Y5Y9 whole entry): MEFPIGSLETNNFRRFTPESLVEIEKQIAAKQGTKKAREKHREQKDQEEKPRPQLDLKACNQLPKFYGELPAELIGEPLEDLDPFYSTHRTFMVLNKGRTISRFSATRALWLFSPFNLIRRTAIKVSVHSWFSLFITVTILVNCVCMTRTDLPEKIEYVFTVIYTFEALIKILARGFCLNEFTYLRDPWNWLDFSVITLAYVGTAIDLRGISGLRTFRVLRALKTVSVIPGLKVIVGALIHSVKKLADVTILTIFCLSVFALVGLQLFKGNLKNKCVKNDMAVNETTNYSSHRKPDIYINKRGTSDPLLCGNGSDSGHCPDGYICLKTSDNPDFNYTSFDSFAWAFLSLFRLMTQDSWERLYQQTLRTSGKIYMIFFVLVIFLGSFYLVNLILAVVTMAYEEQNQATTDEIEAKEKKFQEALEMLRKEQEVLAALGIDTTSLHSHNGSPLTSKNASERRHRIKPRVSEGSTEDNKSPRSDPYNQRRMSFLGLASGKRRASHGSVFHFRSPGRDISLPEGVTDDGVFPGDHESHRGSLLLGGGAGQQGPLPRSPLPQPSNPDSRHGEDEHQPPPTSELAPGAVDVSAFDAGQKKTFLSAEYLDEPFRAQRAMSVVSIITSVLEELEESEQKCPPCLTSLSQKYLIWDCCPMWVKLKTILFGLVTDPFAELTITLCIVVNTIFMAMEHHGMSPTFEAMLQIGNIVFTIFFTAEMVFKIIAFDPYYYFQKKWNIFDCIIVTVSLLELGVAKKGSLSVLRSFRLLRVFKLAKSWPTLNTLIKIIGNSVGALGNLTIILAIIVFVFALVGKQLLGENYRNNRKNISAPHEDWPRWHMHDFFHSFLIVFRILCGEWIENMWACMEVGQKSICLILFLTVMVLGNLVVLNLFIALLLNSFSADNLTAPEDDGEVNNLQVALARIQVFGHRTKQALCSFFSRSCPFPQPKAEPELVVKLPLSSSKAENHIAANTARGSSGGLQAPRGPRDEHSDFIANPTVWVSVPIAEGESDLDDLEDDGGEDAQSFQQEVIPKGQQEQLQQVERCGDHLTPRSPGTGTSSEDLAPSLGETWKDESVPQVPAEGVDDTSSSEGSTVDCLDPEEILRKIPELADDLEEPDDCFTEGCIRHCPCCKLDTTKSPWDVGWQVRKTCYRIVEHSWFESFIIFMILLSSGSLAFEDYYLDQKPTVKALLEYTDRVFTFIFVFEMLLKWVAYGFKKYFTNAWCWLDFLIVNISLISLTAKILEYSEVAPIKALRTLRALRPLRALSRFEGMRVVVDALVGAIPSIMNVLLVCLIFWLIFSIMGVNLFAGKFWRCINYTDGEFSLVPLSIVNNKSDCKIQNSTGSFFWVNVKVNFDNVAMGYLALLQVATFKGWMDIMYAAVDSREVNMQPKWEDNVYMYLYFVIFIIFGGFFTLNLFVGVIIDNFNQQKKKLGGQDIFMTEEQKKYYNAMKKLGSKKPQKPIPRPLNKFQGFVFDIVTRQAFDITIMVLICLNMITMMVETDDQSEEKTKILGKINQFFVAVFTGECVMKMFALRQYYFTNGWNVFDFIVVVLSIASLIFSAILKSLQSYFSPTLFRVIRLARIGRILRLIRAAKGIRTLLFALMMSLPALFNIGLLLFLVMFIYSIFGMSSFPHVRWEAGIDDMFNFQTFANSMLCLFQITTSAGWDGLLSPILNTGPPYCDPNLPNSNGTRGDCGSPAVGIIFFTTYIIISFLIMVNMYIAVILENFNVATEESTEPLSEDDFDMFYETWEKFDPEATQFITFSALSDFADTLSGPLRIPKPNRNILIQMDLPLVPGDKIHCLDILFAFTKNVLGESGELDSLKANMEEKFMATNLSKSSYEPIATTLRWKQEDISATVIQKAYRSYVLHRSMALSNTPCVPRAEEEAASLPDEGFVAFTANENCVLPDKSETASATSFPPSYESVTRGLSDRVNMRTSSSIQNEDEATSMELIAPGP

For `CCN(CC)CCOC(=O)c1ccccc1OC(C)=O.Cl` [2-(diethylamino)-ethyl-2-acetoxybenzoate hydrochloride], the “Main Drug, %” value ([1]; month 0) was 99.48%, the “Main Drug, %” value ([1]; month 0.5) was 99.32% and the “Main Drug, %” value ([1]; month 1) was 97.59%. For the same compound, the “Main Drug, %” value ([1]; month 2) was 94.86%, the “Main Drug, %” value ([1]; month 3, hydrochloride) was 86% and 86.55% and the “Salicylic acid, % (impurity)” value ([1]; month 0) was 0.0028%. The “Salicylic acid-(2-diethylaminoethyl ester) hydrochloride, % (impurity)” value ([1]; month 0) was 0.51%, the “Salicylic acid, % (impurity)” value ([1]; month 0.5) was 0.0035% and the “Salicylic acid-(2-diethylaminoethyl ester) hydrochloride, % (impurity)” value ([1]; month 0.5) was 0.67%. The “Acetylsalicylic acid, % (impurity)” value ([1]; month 1) was 0.018%, the “Salicylic acid, % (impurity)” value ([1]; month 1) was 0.0044% and the “Salicylic acid-(2-diethylaminoethyl ester) hydrochloride, % (impurity)” value ([1]; month 1) was 2.38%. For the same compound, the “Acetylsalicylic acid, % (impurity)” value ([1]; month 2) was 0.033%, the “Salicylic acid, % (impurity)” value ([1]; month 2) was 0.012% and the “Salicylic acid-(2-diethylaminoethyl ester) hydrochloride, % (impurity)” value ([1]; month 2) was 5.09%. The “Acetylsalicylic acid, % (impurity)” value ([1]; month 3) was 0.042%, the “Salicylic acid, % (impurity)” value ([1]; month 3) was 0.049% and the “stability in solution (in words)” value ([1]; solution state) was “did not meet the general requirements for chemical drug stability”. The IC50 (Nav1.7 [2]) was 17.7 µM, the IC50 [3] was 34.6 µM and the Dissociation constant [4] was 8.82. For the same compound, the Repose angle [4] was 42°, the “Acidity: pH value of the 2% aqueous solution” value ([4]; 2% aqueous solution at 25 ± 0.5° C.) was “product at 25 ± 0.5 °C is 4.0-6.0” and the Solubility in acetone ([4]; acetone) was “slightly soluble”. The Solubility in ether ([4]; ether) was “insoluble”, the “Solubility in ethyl acetate” value ([4]; ethyl acetate) was “insoluble” and the Solubility in water ([4]; water) was “extremely soluble”. For the same compound, the IC50 (Nav1.8 [5]) was 74.6 µM, the “CRI (%)” value [6, 9] was 0.0 ± 0.0% and the “CRI (%)” value ([6]; 3% (m/V), 100 μL on left eyeball, 5 min after administration; mean ± SD; hydrochloride)) was 99.1 ± 2.0%. For the same compound, the “CRI (%)” value [6, 10] was 97.2 ± 2.9%, the “CRI (%)” value [6, 11] was 96.7 ± 6.5% and the “CRI (%)” value [6, 12] was 86.7 ± 9.8%. The “CRI (%)” value [6, 13] was 77.5 ± 2.9%, the “CRI (%)” value [6, 14] was 57.5 ± 12.2% and the “CRI (%)” value [6, 15] was 12.2 ± 12.4%. The “CRI (%)” value [6, 16] was 0.0 ± 0.0% and the “local anesthetic effect (in words)” value [6, 17] was “had a local anesthesia effect for ophthalmic administration, with quick onset”.

For `CC(=O)Oc1ccccc1C(=O)O` [Aspirin, aspirin], the “CRI (%)” value [6, 9] was 0.0 ± 0.0%, the “CRI (%)” value [6, 18] was 0.0 ± 0.0% and the “CRI (%)” value [6, 10] was 0.0 ± 0.0%. For the same compound, the “CRI (%)” value [6, 11] was 0.0 ± 0.0%, the “CRI (%)” value [6, 12] was 0.0 ± 0.0% and the “CRI (%)” value [6, 13] was 0.0 ± 0.0%. For the same compound, the “CRI (%)” value [6, 14] was 0.0 ± 0.0%, the “CRI (%)” value [6, 15] was 0.0 ± 0.0% and the “CRI (%)” value [6, 16] was 0.0 ± 0.0%. The “CRI (%)” value ([6]; no time point stated) was 0.0±0.0% and the “local anesthetic effect (in words)” value [6, 17] was “no local anesthetic effect at all”.

For `O=C([O-])c1ccccc1O.[Na+]` [Sodium salicylate, sodium salicylate], the “CRI (%)” value ([6]; rabbit, in vivo) was 0.0±0.0% and the “local anesthetic effect (in words)” value ([6]; rabbit, in vivo) was “no local anesthetic effect at all”.

In the case of `CCN(CC)CC(=O)Nc1c(C)cccc1C` [Lidocaine, lidocaine], the IC50 (Nav1.8 [7]) is listed as 104 µM, the IC50 (Nav1.7 [8]) is listed as 450 µM and the IC50 [3] is listed as 37.1 µM. The “CRI (%)” value [6, 9] was 0.0 ± 0.0%, the “CRI (%)” value [6, 18] was 98.3 ± 3.9% and the “CRI (%)” value [6, 10] was 95.0 ± 10.0%. The “CRI (%)” value [6, 11] was 91.7 ± 15.3%, the “CRI (%)” value [6, 12] was 86.7 ± 21.0% and the “CRI (%)” value [6, 13] was 82.5 ± 27.3%. The “CRI (%)” value [6, 14] was 70.0 ± 27.3%, the “CRI (%)” value [6, 15] was 32.5 ± 30.5% and the “CRI (%)” value [6, 16] was 0.0 ± 0.0%.
